Measured values as given in ChEMBL document CHEMBL4196033, “Potent hydrazone derivatives targeting esophageal cancer cells” (Eur J Med Chem, 2018).

Tests used:
Assay type in all cases: functional, cell-based
MGC-803 = test: Antiproliferative activity against human MGC803 cells after 72 hrs by MTT assay; settings: MGC-803, 72 h
EC9706 = test: Antiproliferative activity against human EC9706 cells after 72 hrs by MTT assay; settings: EC9706, 72 h
MCF7 = test: Antiproliferative activity against human MCF7 cells after 72 hrs by MTT assay; settings: MCF7, 72 h
PC-3 = test: Antiproliferative activity against human PC3 cells after 72 hrs by MTT assay; settings: PC-3, 72 h
ECa-109 cell line = test: Antiproliferative activity against human EC109 cells after 72 hrs by MTT assay; settings: ECa-109, 72 h
SMMC-7721 = test: Antiproliferative activity against human SMMC7721 cells after 72 hrs by MTT assay; settings: SMMC-7721, 72 h

Row | Structure (SMILES) | IC50 (MGC-803) | IC50 (EC9706) | IC50 (MCF7) | IC50 (PC-3) | IC50 (ECa-109 cell line) | IC50 (SMMC-7721)
1 | O=c1[nH]cc(F)c(=O)[nH]1 [FLUOROURACIL] | 9.24 µM | 5.13 µM | 18.8 µM | 6.27 µM | 6.02 µM | 13.7 µM
2 | C/C(=N\NC(=O)c1cccc(S(=O)(=O)N2CCOCC2)c1)c1cccc(N)c1 | > 100 µM | > 100 µM | > 100 µM | > 100 µM | > 100 µM | > 100 µM
3 | O=C(N/N=C/c1cc(Br)cc(Br)c1O)c1cccc(S(=O)(=O)N2CCOCC2)c1 | 17.8 µM | 2.44 µM | 16 µM | 9.7 µM | 10.3 µM | 7.31 µM
4 | C/C(=N\NC(=O)c1cccc(S(=O)(=O)N2CCOCC2)c1)c1cc(O)ccc1O | 9.09 µM | 3.51 µM | > 100 µM | > 100 µM | 21.4 µM | > 100 µM
5 | O=C(N/N=C/c1ccccc1O)c1cccc(S(=O)(=O)N2CCOCC2)c1 | 25.3 µM | 19.6 µM | 29.1 µM | 13.8 µM | 14.4 µM | 12.1 µM
6 | C/C(=N\NC(=O)c1cccc(S(=O)(=O)N2CCOCC2)c1)c1ccccc1 | > 100 µM | > 100 µM | > 100 µM | > 100 µM | > 100 µM | > 100 µM
7 | CCOc1cccc(/C=N/NC(=O)c2cccc(S(=O)(=O)N3CCOCC3)c2)c1O | 18 µM | 15.4 µM | 19.3 µM | 15.3 µM | 16.5 µM | 6.99 µM
8 | NNC(=O)c1cccc(S(=O)(=O)N2CCOCC2)c1 | – | > 100 µM | – | – | > 100 µM | –
9 | O=C(N/N=C/c1ccco1)c1cccc(S(=O)(=O)N2CCOCC2)c1 | > 100 µM | > 100 µM | > 100 µM | > 100 µM | > 100 µM | > 100 µM
10 | C/C(=N\NC(=O)c1cccc(S(=O)(=O)N2CCOCC2)c1)c1ccccc1O | 1.22 µM | 1.22 µM | 5.4 µM | 2.81 µM | 5.45 µM | 1.37 µM
11 | O=C(N/N=C/c1ccccn1)c1cccc(S(=O)(=O)N2CCOCC2)c1 | 81.7 µM | 44.3 µM | > 100 µM | 88.1 µM | 55.7 µM | > 100 µM
12 | C/C(=N\NC(=O)c1cccc(S(=O)(=O)N2CCOCC2)c1)c1cc(F)ccc1O | 2.26 µM | 2.21 µM | 6.65 µM | 4.41 µM | 3.27 µM | 1.15 µM
13 | C/C(=N\NC(=O)c1cccc(S(=O)(=O)N2CCOCC2)c1)c1ccc(O)cc1 | 71.4 µM | 71.4 µM | > 100 µM | 36.2 µM | 88.3 µM | 88.5 µM
14 | C/C(=N\NC(=O)c1cccc(S(=O)(=O)N2CCOCC2)c1)c1cccc(N)c1O | 0.53 µM | 3.52 µM | 1.01 µM | 2.33 µM | 5.06 µM | 2.33 µM
15 | O=C(N/N=C/c1cc(Br)ccc1O)c1cccc(S(=O)(=O)N2CCOCC2)c1 | 14.8 µM | 29.7 µM | 26.6 µM | 7.23 µM | 11.7 µM | 9.94 µM
16 | C/C(=N\NC(=O)c1cccc(S(=O)(=O)N2CCOCC2)c1)c1ccc(F)cc1 | > 100 µM | > 100 µM | > 100 µM | 81.3 µM | > 100 µM | > 100 µM
17 | C/C(=N\NC(=O)c1cccc(S(=O)(=O)N2CCOCC2)c1)c1cccc(O)c1 | > 100 µM | > 100 µM | > 100 µM | > 100 µM | > 100 µM | > 100 µM
18 | C/C(=N\NC(=O)c1cccc(S(=O)(=O)N2CCOCC2)c1)c1cc(Br)ccc1O | 18 µM | 24.7 µM | 7.83 µM | 6.89 µM | 5.28 µM | 2.41 µM
19 | CCN(CC)c1ccc(/C=N/NC(=O)c2cccc(S(=O)(=O)N3CCOCC3)c2)c(O)c1 | 4.04 µM | 0.92 µM | 3.52 µM | 14 µM | 0.73 µM | 27.1 µM
20 | O=C(N/N=C/c1cc(Cl)ccc1O)c1cccc(S(=O)(=O)N2CCOCC2)c1 | 11 µM | 2.15 µM | 16.4 µM | 10.5 µM | 2.84 µM | 6.82 µM
21 | O=C(N/N=C/c1cccs1)c1cccc(S(=O)(=O)N2CCOCC2)c1 | > 100 µM | > 100 µM | > 100 µM | > 100 µM | > 100 µM | > 100 µM
